Assays:
NAMECs = experiment: NanoSight Nanoparticle Tracking Analysis of CM-P4 fractions of NAMEC culture; assay type: cell-based, human
Text: FIG. 1 includes a TEM image and a graph. (A) is a TEM image of the P4 medium fraction of NAMECs treated with GW627368X (GW) for 4 days. Scale bar, 1 μm. (B) is a graph showing the number of particles in the CM-P4 fractions of NAMEC culture counted by using NanoSight Nanoparticle Tracking analysis. Top panel: Quantification of exosome release is shown as the ratio of [P4 GAPDH marker level]/[cell number]. Data are means±SEM (n=3). *P≤0.05. **P≤0.005. Bottom table: Quantification of exosome release is shown as the number of particles of the CM-P4 fractions released per cell measured by nanoparticle tracking analysis.
The isolated human mammary epithelial stem cells (NAMECs) were cultured in mammary epithelial cell basal medium (250 ml MCDB-170, 250 ml DMEM-F12, 1.2 g sodium bicarbonate, 2.5 μg EGF, 0.25 mg Hydrocortisone, 2.5 mg insulin, 35 mg BPE) with or without containing EP4 antagonist, i.e., GW627368X (GW) at 1 μg/ml, or AH23848 (AH) at 4 μg/ml, for 4 days. The culture medium was supplied with 0.5 μg/ml of GW or 2 μg/ml of AH23848 at the third day of the culturing period. For the induction of EP4 antagonist-induced exosomes from mouse mammary epithelial cells, cells were cultured in a medium containing 10 μg/ml of GW for 4 days.
The culture media were centrifuged at 300 g for 5 min to remove cells (P1), at 2,000 g for 20 min (P2), then at 10,000 g for 30 min (P3) all at 4° C. Dead cells and cell debris were removed at 300 g (P1) and 1200 g (P2). Finally, exosomes (P4) were separated from the supernatant by centrifugation at 110,000 g for 60 min. The P4 exosome pellet was washed once in PBS and then re-suspended in PBS for further application.

HMLE cells = experiment: Exosome markers in CM-P4 fraction of non-stem HMLE cells; assay type: cell-based; conditions: 2 days treatment
Text: FIG. 2 includes graphs and blots showing analyses of GW-treated NAMEC P4 fractions. CM-P4 GW-treated NAMECs were collected and subjected to (A) NanoSight Nanoparticle Tracking Analysis (NTA) and (B) Dynamic Light Scattering/Zeta Potential Analysis (DLS). […] D: particle diameter. RN: relative number. (C) is a blot showing the amounts of the CD44 stem cell marker and the CD81, CD9, TSG101, Alix, HSP70 and GAPDH exosome markers measured in the indicated CM-P4 fractions and cell lysates. The culture media and cell lysates were collected from the same number of NAMECs treated with vehicle (Crl), GW627368X (GW) or PGE2 (1 μM) for 4 days. (D) is a blot showing the amounts of the GAPDH and CD81 exosome markers and the CD44 stem cell marker measured in the CM-P4 fraction of NAMECs (CD44hi/CD24− stem cells) or CD44lo/CD24+ non-stem cells (HMLE cells) treated with vehicle (Crl) or GW for 2 days. 1×: P4 exosome fraction released by 1×10^6 cells; 2×: P4 exosome fraction released by 2×10^6 cells. […] (E) is a blot showing that the CD44 stem cell marker and GAPDH and CD81 exosome markers were measured in the indicated P4 conditioned medium fractions of NAMECs treated with vehicle (Crl), GW627368X (GW, 1 μg/ml), AH23848 (EP4 antagonist; 0.4, 2, 4 μg/ml), or AH6809 (EP1/2/3 antagonist; 0.8, 4, 8 μg/ml). […]

MDA-MB-231 cells = experiment: NTA and EV protein of CM-P4 fractions of MDA-MB-231 cells; assay type: cell-based, human
Text: (§1) (A) Quantification of EV/exosome release, shown as the number of particles in the CM-P4 fractions released per cell, from MCF-7 and MDA-MB-231 breast cancer cells treated with vehicle or with the indicated concentrations of GW627368X. Particles in the P4 fractions were counted using nanoparticle tracking analysis. Data are means±SEM (n=10). *P≤0.05, ***P≤0.001. (B) Quantification of the total EV protein released from MCF-7 and MDA-MB-231 cells treated with vehicle or with the indicated concentrations of GW627368X. The amounts (m) of protein present per cell in the conditioned medium P4 fractions are presented as means±SEM (n=3). *P≤0.05; (C) Protein levels in the P4 EV/exosome fractions and cell lysates, analyzed by Western blot. Culture media and cell lysates were collected from the same numbers of MCF-7 and MDA-MB-231 cells treated with vehicle or with GW627368X (GW), at the indicated concentrations, for 4 days. The P4 fractions of the culture media, containing EVs, were isolated. […]
(§2) We next examined whether blocking EP4-mediated signaling with an EP4 antagonist can elicit EV-mediated removal of CSC proteins (e.g., mesenchymal markers and stem cell markers) in the human breast carcinoma MCF-7 and MDA-MB-231 cell lines. P4 fractions from the conditioned media (CM-P4) of GW-treated MCF-7 and MDA-MB-231 cells were analyzed using NTA (FIG. 21, A). […]

MCF-7 cells = experiment: NTA and EV protein of CM-P4 fractions of MCF-7 cells; assay type: cell-based, human; conditions: increasing concentrations of GW
Text: as §1, §2

CCOc1c2c(c(OCC)c3ccccc13)C(=O)N(c1ccc(CC(=O)NS(=O)(=O)c3ccccc3)cc1)C2 [GW627368X]
concentration of released membrane vesicles (NAMECs; CM-P4 fraction, 4 days, PGE2 1 μM): ~5.4×10^4 particle/cell | release of membrane vesicles compared to untreated and PGE2-treated NAMECs (NAMECs; particle numbers in CM-P4): significantly triggered the release of membrane vesicles | exosome release from non-stem HMLE cells (CD81, CD44, GAPDH) (HMLE cells): did not increase exosome release | amount of protein per cell in the EV/exosome fraction (MDA-MB-231 cells; GW-treated MDA-MB-231): 10 fold | numbers of EVs released (MDA-MB-231 cells; increasing concentrations of GW): modestly increased | numbers of EVs released (MCF-7 cells): modestly increased

From patent publication US11149277B2, “Method of producing enriched exosomes” (National Health Research Institutes, priority 2016, dated 2021)
